In patent US11014911B2, “CDK2 inhibitors” (Pfizer Inc., priority 2019, dated 2021):

How the values were obtained:
[1] = molecular target: CDK2/Cyclin E1 full length (Homo sapiens (Human), UniProt P24941); assay: CDK2/Cyclin E1 full length mobility shift assay; format: biochemical
[2] = molecular target: GSK3β (H350L) (Homo sapiens (Human), UniProt P49841); details: read-out: GSK3β Ki
Sequence of GSK3β (H350L) (P49841 whole entry, stated change not applied): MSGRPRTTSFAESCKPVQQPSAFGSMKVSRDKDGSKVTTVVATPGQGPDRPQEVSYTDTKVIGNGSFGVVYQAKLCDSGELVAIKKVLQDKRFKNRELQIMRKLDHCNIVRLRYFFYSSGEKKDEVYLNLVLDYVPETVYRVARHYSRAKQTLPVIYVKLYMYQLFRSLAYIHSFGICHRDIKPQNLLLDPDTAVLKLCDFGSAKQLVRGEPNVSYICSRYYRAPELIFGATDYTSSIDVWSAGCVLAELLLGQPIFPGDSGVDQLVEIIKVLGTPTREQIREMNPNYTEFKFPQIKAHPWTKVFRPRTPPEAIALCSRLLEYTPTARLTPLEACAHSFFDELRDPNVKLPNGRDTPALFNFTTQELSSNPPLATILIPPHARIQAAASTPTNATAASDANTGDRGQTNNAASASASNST
Procedure: The assay was initiated with the addition of ATP, following 15 minutes pre-incubation of enzyme and inhibitor at room temperature in the reaction mixture. The reaction was stopped after 30 minutes at room temperature by the addition of 50 μL of 80 mM EDTA.

Compound: CC[C@H](C)NC(=O)O[C@@H]1CC[C@H](c2cc(NC(=O)Cc3cc(C)ccc3S(C)(=O)=O)n[nH]2)C1 [Example 371, (1R,3S)-3-[3-({[5-methyl-2-(methylsulfonyl)phenyl]acetyl}amino)-1H-pyrazol-5-yl]cyclopentyl (2S)-butan-2-ylcarbamate]
- Ki [1]: 0.32 nM
- Ki [2]: 161 nM

Compound: Cc1ncc(CC(=O)Nc2cc([C@@H]3CC[C@H](OC(=O)N[C@H]4CC[C@@](C)(O)CC4)C3)[nH]n2)s1 [Example 562, (1S,3R)-3-(3-{[(2-methyl-1,3-thiazol-5-yl)acetyl]amino}-1H-pyrazol-5-yl)cyclopentyl (cis-4-hydroxy-4-methylcyclohexyl)carbamate]
- Ki [1]: 0.43 nM
- Ki [2]: 4.85 nM

Compound: CC[C@H](C)NC(=O)O[C@@H]1CC[C@H](c2cc(NC(=O)c3ccnn3C)n[nH]2)C1 [Example 42]
- Ki [1]: 0.05 nM
- Ki [2]: 34.4 nM

Compound: Cc1cnc(CC(=O)Nc2cc([C@H]3CC[C@@H](OC(=O)N4CCC4(C)C)C3)[nH]n2)cn1 [Example 601, (1R,3S)-3-(3-{[(5-methylpyrazin-2-yl)acetyl]amino}-1H-pyrazol-5-yl)cyclopentyl 2,2-dimethylazetidine-1-carboxylate]
- Ki [1]: 0.39 nM
- Ki [2]: 7.32 nM

Compound: CC[C@H](C)NC(=O)O[C@@H]1CC[C@H](c2cc(NC(=O)Cc3cnc4ncnn4c3)n[nH]2)C1 [Example 39]
- Ki [1]: 0.14 nM
- Ki [2]: 23.9 nM

Compound: CCNC(=O)O[C@@H]1CC[C@H](c2cc(NC(=O)Cc3ccc(OC)cc3)n[nH]2)C1 [Example 230, (1R,3S)-3-(3-{[(4-methoxyphenyl)acetyl]amino}-1H-pyrazol-5-yl)cyclopentyl ethylcarbamate]
- Ki [1]: 1.55 nM
- Ki [2]: 48.6 nM

Compound: CC[C@H](C)NC(=O)O[C@@H]1CC[C@H](c2cc(NC(=O)Cc3ccc4c(cnn4C)c3)n[nH]2)C1 [Example 48]
- Ki [1]: 0.17 nM
- Ki [2]: 9.58 nM

Compound: COCCn1nccc1C(=O)Nc1cc([C@H]2CC[C@@H](OC(=O)NC(C)(C)C)C2)[nH]n1 [Example 308, (1R,3S)-3-[3-({[1-(2-methoxyethyl)-1H-pyrazol-5-yl]carbonyl}amino)-1H-pyrazol-5-yl]cyclopentyl tert-butylcarbamate]
- Ki [1]: 0.3 nM
- Ki [2]: 89.1 nM

Compound: Cn1cc(CC(=O)Nc2cc([C@H]3CC[C@@H](OC(=O)N4CCC4(C)C)C3)[nH]n2)cn1 [Example 148]
- Ki [1]: 0.24 nM
- Ki [2]: 5.57 nM

Compound: COc1ccc(CC(=O)Nc2cc([C@@H]3CC[C@H](OC(=O)N[C@H]4CC[C@@H](O)CC4)C3)[nH]n2)nc1 [Example 554, (1S,3R)-3-(3-{[(5-methoxypyridin-2-yl)acetyl]amino}-1H-pyrazol-5-yl)cyclopentyl (cis-4-hydroxycyclohexyl)carbamate]
- Ki [1]: 1.76 nM
- Ki [2]: 5.11 nM

Compound: CC[C@H](C)NC(=O)O[C@@H]1CC[C@H](c2cc(NC(=O)Cc3cnc(C)s3)n[nH]2)C1 [Example 33]
- Ki [1]: 0.17 nM
- Ki [2]: 26.4 nM

Compound: COc1ccc(CC(=O)Nc2cc([C@@H]3CC[C@H](OC(=O)N[C@H]4CC[C@H](O)CC4)C3)[nH]n2)nc1 [Example 557, (1S,3R)-3-(3-{[(5-methoxypyridin-2-yl)acetyl]amino}-1H-pyrazol-5-yl)cyclopentyl (trans-4-hydroxycyclohexyl)carbamate]
- Ki [1]: 1.01 nM
- Ki [2]: 2.6 nM

Compound: C[C@]1(O)CC[C@@H](NC(=O)O[C@H]2CC[C@@H](c3cc(NC(=O)Cc4ccc(F)cc4)n[nH]3)C2)CC1 [Example 560, (1S,3R)-3-(3-{[(4-fluorophenyl)acetyl]amino}-1H-pyrazol-5-yl)cyclopentyl (cis-4-hydroxy-4-methylcyclohexyl)carbamate]
- Ki [1]: 0.6 nM
- Ki [2]: 9.84 nM

Compound: CC[C@H](C)NC(=O)O[C@@H]1CC[C@H](c2cc(NC(=O)Cc3cc(OC)ncc3S(C)(=O)=O)n[nH]2)C1 [Example 375, (1R,3S)-3-[3-({[2-methoxy-5-(methylsulfonyl)pyridin-4-yl]acetyl}amino)-1H-pyrazol-5-yl]cyclopentyl (2S)-butan-2-ylcarbamate]
- Ki [1]: 0.31 nM
- Ki [2]: 116 nM

Compound: Cc1ncc(CC(=O)Nc2cc([C@H]3CC[C@@H](OC(=O)NC(C)(C)C)C3)[nH]n2)s1 [Example 113]
- Ki [1]: 0.16 nM
- Ki [2]: 11.1 nM

Compound: COc1ncc(CC(=O)Nc2cc([C@H]3CC[C@@H](OC(=O)NC(C)C)C3)[nH]n2)s1 [Example 281, (1R,3S)-3-(3-{[(2-methoxy-1,3-thiazol-5-yl)acetyl]amino}-1H-pyrazol-5-yl)cyclopentyl propan-2-ylcarbamate]
- Ki [1]: 0.33 nM
- Ki [2]: 24.4 nM

Compound: COc1cc(CC(=O)Nc2cc([C@@H]3CC[C@H](OC(=O)N[C@H]4CC[C@](C)(O)CC4)C3)[nH]n2)ccn1 [Example 569, (1S,3R)-3-(3-{[(2-methoxypyridin-4-yl)acetyl]amino}-1H-pyrazol-5-yl)cyclopentyl (trans-4-hydroxy-4-methylcyclohexyl)carbamate]
- Ki [1]: 1.25 nM
- Ki [2]: 4.31 nM

Compound: Cn1ccc(CC(=O)Nc2cc([C@H]3CC[C@@H](OC(=O)N4CCCC4(C)C)C3)[nH]n2)n1 [Example 639, (1R,35)-3-(3-{[(1-methyl-1H-pyrazol-3-yl)acetyl]amino}-1H-pyrazol-5-yl)cyclopentyl 2,2-dimethylpyrrolidine-1-carboxylate]
- Ki [1]: 0.47 nM
- Ki [2]: 6.34 nM

Compound: CC(C)NC(=O)O[C@@H]1CC[C@H](c2cc(NC(=O)Cc3cc(F)cc(F)c3)n[nH]2)C1 [Example 279, (1R,3S)-3-(3-{[(3,5-difluorophenyl)acetyl]amino}-1H-pyrazol-5-yl)cyclopentyl propan-2-ylcarbamate]
- Ki [1]: 0.32 nM
- Ki [2]: 53.2 nM

Compound: COc1ccc(CC(=O)Nc2cc([C@H]3CC[C@@H](OC(=O)N4C[C@H](O)[C@H]4C)C3)[nH]n2)cn1 [Example 616, (1R,3S)-3-(3-{[(6-methoxypyridin-3-yl)acetyl]amino}-1H-pyrazol-5-yl)cyclopentyl (2R,3S)-3-hydroxy-2-methylazetidine-1-carboxylate]
- Ki [1]: 0.28 nM
- Ki [2]: 4.05 nM

Compound: CC[C@H](C)NC(=O)O[C@@H]1CC[C@H](c2cc(NC(=O)c3ccnn3CCOC)n[nH]2)C1 [Example 51]
- Ki [1]: 0.2 nM
- Ki [2]: 54 nM

Compound: CCCNC(=O)O[C@@H]1CC[C@H](c2cc(NC(=O)c3cc(C)nn3C)n[nH]2)C1 [Example 173, (1R,3S)-3-(3-{[(1,3-dimethyl-1H-pyrazol-5-yl)carbonyl]amino}-1H-pyrazol-5-yl)cyclopentyl propylcarbamate]
- Ki [1]: 2.29 nM
- Ki [2]: > 191 nM

Compound: COc1ccc(S(C)(=O)=O)c(CC(=O)Nc2cc([C@H]3CC[C@@H](OC(=O)NC4(C)CC4)C3)[nH]n2)c1 [Example 447, (1R,3S)-3-[3-({[5-methoxy-2-(methylsulfonyl)phenyl]acetyl}amino)-1H-pyrazol-5-yl]cyclopentyl (1-methylcyclopropyl)carbamate]
- Ki [1]: 0.36 nM
- Ki [2]: > 47.6 nM

Compound: CCCNC(=O)O[C@@H]1CC[C@H](c2cc(NC(=O)c3ccnn3C)n[nH]2)C1 [Example 164, (1R,3S)-3-(3-{[(1-methyl-1H-pyrazol-5-yl)carbonyl]amino}-1H-pyrazol-5-yl)cyclopentyl propylcarbamate]
- Ki [1]: 0.72 nM
- Ki [2]: 44.7 nM

Compound: CCC(C)(C)NC(=O)O[C@@H]1CC[C@H](c2cc(NC(=O)Cc3ncc(C)o3)n[nH]2)C1 [Example 62]
- Ki [1]: 0.21 nM
- Ki [2]: 24 nM

Compound: Cc1ccc(CC(=O)Nc2cc([C@H]3CC[C@@H](OC(=O)NCC(F)F)C3)[nH]n2)cn1 [Example 247, (1R,3S)-3-(3-{[(6-methylpyridin-3-yl)acetyl]amino}-1H-pyrazol-5-yl)cyclopentyl (2,2-difluoroethyl)carbamate]
- Ki [1]: 1.36 nM
- Ki [2]: 12.2 nM

Compound: Cc1cnc(CC(=O)Nc2cc([C@H]3CC[C@@H](OC(=O)NCCC(F)(F)F)C3)[nH]n2)o1 [Example 218, (1R,3S)-3-(3-{[(5-methyl-1,3-oxazol-2-yl)acetyl]amino}-1H-pyrazol-5-yl)cyclopentyl (3,3,3-trifluoropropyl)carbamate]
- Ki [1]: 2.09 nM
- Ki [2]: 30.6 nM

Compound: CC[C@H](C)NC(=O)O[C@@H]1CC[C@H](c2cc(NC(=O)Cc3cncs3)n[nH]2)C1 [Example 36]
- Ki [1]: 0.17 nM
- Ki [2]: 21.3 nM

Compound: Cc1cc(CC(=O)Nc2cc([C@H]3CC[C@@H](OC(=O)N4CCCC[C@H]4C)C3)[nH]n2)on1 [Example 641, (1R,3S)-3-(3-{[(3-methyl-1,2-oxazol-5-yl)acetyl]amino}-1H-pyrazol-5-yl)cyclopentyl (2R)-2-methylpiperidine-1-carboxylate]
- Ki [1]: 0.59 nM
- Ki [2]: 14.4 nM

Compound: CC[C@H](C)NC(=O)O[C@@H]1CC[C@H](c2cc(NC(=O)Cc3cnc(C)cn3)n[nH]2)C1 [Example 34]
- Ki [1]: 0.33 nM
- Ki [2]: 31.2 nM

Compound: CCCNC(=O)O[C@@H]1CC[C@H](c2cc(NC(=O)Cc3cc(C)ccc3S(C)(=O)=O)n[nH]2)C1 [Example 206, (1R,3S)-3-[3-({[5-methyl-2-(methylsulfonyl)phenyl]acetyl}amino)-1H-pyrazol-5-yl]cyclopentyl propylcarbamate]
- Ki [1]: 1.22 nM
- Ki [2]: > 95.3 nM

Compound: COc1ccc(CC(=O)Nc2cc([C@@H]3CC[C@H](OC(=O)N[C@H]4CC[C@](C)(O)CC4)C3)[nH]n2)cc1 [Example 565, (1S,3R)-3-(3-{[(4-methoxyphenyl)acetyl]amino}-1H-pyrazol-5-yl)cyclopentyl (trans-4-hydroxy-4-methylcyclohexyl)carbamate]
- Ki [1]: 1.24 nM
- Ki [2]: 4.07 nM

Compound: CC[C@H](C)NC(=O)O[C@@H]1CC[C@H](c2cc(NC(=O)Cc3ccccc3S(C)(=O)=O)n[nH]2)C1 [Example 370, (1R,3S)-3-[3-({[2-(methylsulfonyl)phenyl]acetyl}amino)-1H-pyrazol-5-yl]cyclopentyl (2S)-butan-2-ylcarbamate]
- Ki [2]: 50.8 nM

Compound: COc1ccc(CC(=O)Nc2cc([C@@H]3CC[C@H](OC(=O)N4CCC4(C)C)C3)[nH]n2)cn1 [Example 145]
- Ki [2]: 0.95 nM

Compound: CCCNC(=O)O[C@H]1CC[C@@H](c2cc(NC(=O)Cc3ccnc(OC)c3)n[nH]2)C1 [Example 19]
- Ki [2]: 20.8 nM

Compound: C[C@H]1CCCN1C(=O)O[C@@H]1CC[C@H](c2cc(NC(=O)Cc3ccn(C)n3)n[nH]2)C1 [Example 631, (1R,3S)-3-(3-{[(1-methyl-1H-pyrazol-3-yl)acetyl]amino}-1H-pyrazol-5-yl)cyclopentyl (2S)-2-methylpyrrolidine-1-carboxylate]
- Ki [2]: 11.8 nM
